PubChem BioAssay (NCI)
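Grown in 96-well plates, cells were treated for 48 hours with each compound at five concentrations. Insufficient inhibition: endpoint recorded as highest concentration tested. Definition used: TGI = concentration required for complete inhibition of growth.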

How the values were obtained:
Experiment in all cases: DTP human tumour cell line panel, 48 h
[1] = tested on: MCF7 breast
[2] = tested on: OVCAR-8 ovarian
[3] = tested on: IGROV1 ovarian
[4] = tested on: CCRF-CEM leukemia
[5] = tested on: SF-268 CNS
[6] = tested on: UACC-62 melanoma
[7] = tested on: SF-539 CNS
[8] = tested on: SF-295 CNS
[9] = tested on: NCI-H23 lung
[10] = tested on: UACC-257 melanoma
[11] = tested on: MDA-MB-231 breast
[12] = tested on: OVCAR-5 ovarian
[13] = tested on: OVCAR-4 ovarian
[14] = tested on: SNB-75 CNS
[15] = tested on: MALME-3M melanoma
[16] = tested on: T-47D breast
[17] = tested on: SK-OV-3 ovarian
[18] = tested on: SK-MEL-5 melanoma
[19] = tested on: RPMI-8226 leukemia
[20] = tested on: HOP-92 NSCLC
[21] = tested on: SK-MEL-2 melanoma
[22] = tested on: HOP-62 NSCLC
[23] = tested on: CAKI-1 renal
[24] = tested on: RXF 393 renal
[25] = tested on: DU-145 prostate
[26] = tested on: U251 CNS
[27] = tested on: HS 578T breast
[28] = tested on: SN12C renal
[29] = tested on: HL-60(TB) leukemia
[30] = tested on: HCC-2998 colon
[31] = tested on: SK-MEL-28 melanoma
[32] = tested on: UO-31 renal
[33] = tested on: 786-0 renal
[34] = tested on: NCI/ADR-RES ovarian
[35] = tested on: MOLT-4 leukemia
[36] = tested on: MDA-MB-435
[37] = tested on: A549 NSCLC
[38] = tested on: A498 renal
[39] = tested on: MDA-N
[40] = tested on: HT29 colon
[41] = tested on: HCT-15 colon
[42] = tested on: ACHN renal
[43] = tested on: M14 melanoma
[44] = tested on: TK-10 renal
[45] = tested on: PC-3 prostate
[46] = tested on: HCT-116 colon
[47] = tested on: SW-620 colon
[48] = tested on: SNB-19 CNS
[49] = tested on: K-562 leukemia
[50] = tested on: LOX IMVI melanoma
[51] = tested on: EKVX NSCLC
[52] = tested on: NCI-H522 lung
[53] = tested on: NCI-H226 lung
[54] = tested on: COLO 205 colon
[55] = tested on: BT-549 breast
[56] = tested on: OVCAR-3 ovarian
[57] = tested on: SR leukemia
[58] = tested on: KM12 colon
[59] = tested on: NCI-H460 lung

In the case of `COC(=O)[C@]1(C)CCC[C@@]2(C)[C@@H]3C[C@@H]4[C@H]5C[C@@]3(CC[C@@H]21)C[C@@]45C`, the TGI [1] is reported as 30.3 µM, the TGI [2] is reported as 30.6 µM and the TGI [3] is reported as 36 µM. For the same compound, the TGI [4] was 45.7 µM, the TGI [5] was 31.8 µM and the TGI [6] was 28 µM. For the same compound, the TGI [7] was 38.7 µM, the TGI [8] was 28.5 µM and the TGI [9] was 28.2 µM. The TGI [10] was 28.8 µM, the TGI [11] was 29.9 µM and the TGI [12] was 34.2 µM. For the same compound, the TGI [13] was 26.7 µM, the TGI [14] was 31.5 µM and the TGI [15] was 37.3 µM. The TGI [16] was 62.2 µM, the TGI [17] was 27.8 µM and the TGI [18] was 34.3 µM. For the same compound, the TGI [19] was 27.7 µM, the TGI [20] was 29.4 µM and the TGI [21] was 30.9 µM. The TGI [22] was 32.2 µM, the TGI [23] was 30 µM and the TGI [24] was 38.2 µM. For the same compound, the TGI [25] was 65.9 µM, the TGI [26] was 63.7 µM and the TGI [27] was 47.9 µM. For the same compound, the TGI [28] was 33.5 µM, the TGI [29] was 17.8 µM and the TGI [30] was 31 µM. For the same compound, the TGI [31] was 47.1 µM, the TGI [32] was 29.4 µM and the TGI [33] was 29.6 µM. The TGI [34] was 32.1 µM, the TGI [35] was 33.8 µM and the TGI [36] was 38.7 µM. It also gave a TGI [37] of 28 µM, a TGI [38] of 34.1 µM and a TGI [39] of 31.8 µM. The TGI [40] was 27.6 µM, the TGI [41] was 29.7 µM and the TGI [42] was 29.2 µM. The TGI [43] was 38.8 µM, the TGI [44] was 28.3 µM and the TGI [45] was 29.3 µM. For the same compound, the TGI [46] was 45.2 µM, the TGI [47] was 62.6 µM and the TGI [48] was 26.9 µM. It also gave a TGI [49] of 19.1 µM, a TGI [50] of 34.9 µM and a TGI [51] of 31.7 µM. The TGI [52] was 32.9 µM, the TGI [53] was 30.5 µM and the TGI [54] was 45.8 µM. The TGI [55] was 30.2 µM and the TGI [56] was 32.7 µM.

In the case of `Cn1c2ccc(C3=NCCN3)cc2c2cc(C3=NCCN3)ccc21`, the TGI [2] is reported as over 100 µM, the TGI [3] is reported as over 100 µM and the TGI [4] is reported as 0.0344 µM. For the same compound, the TGI [5] was over 100 µM, the TGI [7] was over 100 µM and the TGI [57] was over 100 µM. For the same compound, the TGI [8] was over 100 µM, the TGI [9] was over 100 µM and the TGI [10] was over 100 µM. For the same compound, the TGI [11] was over 100 µM, the TGI [12] was over 100 µM and the TGI [13] was over 100 µM. The TGI [14] was over 100 µM, the TGI [15] was 61 µM and the TGI [16] was over 100 µM. For the same compound, the TGI [17] was over 100 µM, the TGI [18] was over 100 µM and the TGI [19] was over 100 µM. It also gave a TGI [20] of 63.7 µM, a TGI [21] of over 100 µM and a TGI [22] of over 100 µM. For the same compound, the TGI [23] was over 100 µM, the TGI [24] was over 100 µM and the TGI [25] was over 100 µM. For the same compound, the TGI [26] was over 100 µM, the TGI [27] was over 100 µM and the TGI [28] was over 100 µM. The TGI [31] was over 100 µM, the TGI [32] was over 100 µM and the TGI [33] was over 100 µM. For the same compound, the TGI [34] was over 100 µM, the TGI [35] was over 100 µM and the TGI [58] was over 100 µM. It also gave a TGI [36] of over 100 µM, a TGI [37] of over 100 µM and a TGI [38] of over 100 µM. It also gave a TGI [39] of over 100 µM, a TGI [40] of over 100 µM and a TGI [41] of over 100 µM. The TGI [59] was 25.9 µM, the TGI [42] was over 100 µM and the TGI [43] was over 100 µM. It also gave a TGI [44] of over 100 µM, a TGI [45] of over 100 µM and a TGI [46] of over 100 µM. It also gave a TGI [47] of over 100 µM, a TGI [48] of over 100 µM and a TGI [49] of over 100 µM. It also gave a TGI [50] of over 100 µM, a TGI [51] of over 100 µM and a TGI [52] of over 100 µM. The TGI [53] was over 100 µM, the TGI [54] was over 100 µM and the TGI [55] was over 100 µM. It also gave a TGI [56] of over 100 µM.
